{"source": "patent US20220072011A1", "about": "“TREATMENTS OF ACCUMULATED FAT WITH DEOXYCHOLIC ACID AND SALTS THEREOF” (Allergan Sales, LLC, priority 2015, published 2022)", "test": "Precipitate formation from sodium deoxycholate solutions after 1 week of storage (visual inspection)", "assay_type": "physicochemical", "conditions": "1 week storage", "method": "Solutions of sodium deoxycholate at different concentration were evaluated for precipitate formation after 1 week of storage. […] By visual inspection, the amount of precipitation can be rated as tabulated below.", "data": [{"smiles": "C[C@H](CCC(=O)[O-])[C@H]1CCC2C3CC[C@@H]4C[C@H](O)CC[C@]4(C)C3C[C@H](O)[C@@]21C.[Na+]", "note": "(stereo partly drawn) [Sodium Deoxycholate, sodium (4R)-4-((3R,5R,10S,12S,13R,17R)-3,12-dihydroxy-10,13-dimethylhexadecahydro-1H-cyclopenta[a]phenanthren-17-yl)pentanoate]", "values": [{"measurement": "Precipitation, Comment", "setting": "0.5% w/v", "result": "Significant amounts of precipitate visible to the naked eye"}, {"measurement": "Precipitation, Comment", "setting": "1.0% w/v", "result": "Significant amounts of precipitate visible to the naked eye"}]}]}
